Results taken from patent US4112097A, “Antihypertensive agents” (Abbott Laboratories, priority 1977, dated 1978).
Structures can show the parent of a compound that is named as a salt.

Tests used:
[1] = tested on: spontaneously hypertensive (SH) rats; test: Antihypertensive effect (blood pressure and heart rate) in spontaneously hypertensive rats; type: in vivo, rat; settings: for Percent Change (antihypertensive effect): individual values of 2 rats; for Percent Change BP (blood pressure) / Percent Change HR (heart rate): N=4, mean
Procedure: The screening is conducted as follows:
Male spontaneously hypertensive (SH) rats are trained to be restrained in a wire mesh cylinder in a warming box, at least two training cycles being conducted before testing. The rats are warmed for about 1/2 hour period to blood pressure measurement, the warming box being maintained at a constant temperature of 36° C.
An occluding cuff attached to the programed sphymomanometer is placed near the base of the tail of each rat and the pressure in the cuff is increased automatically from 0 to 250 milimeters of mercury (mm Hg) at a rate of 10 mm Hg per second. The total time for each cycle of inflation and deflation of the cuff is 50 seconds and the interval between cycles is one minute.
A photocell is placed distal to the cuff to record the pulses due to forward motion of blood flow with each heart beat. As the pressure in the cuff increases, the pulse disappears completely at a point where cuff pressure equals or exceeds the arterial blood pressure and it reappears during deflation at approximately the same pressure. Five interference free signals for deflation are recorded for each rat. Rats with a blood pressure of 180 mm Hg or more during the control period are used in the study. Blood pressure and heart rate readings are recorded on a model VII Grass polygraph at intervals of 1, 3, 5 and 24 hours after administration of the drug.

physchem = settings: water
Procedure: The water in the filtrate was removed in vacuo and the residue weighed and found to be 16.7 mg.

[2] = intraperitoneal 30 mg/kg, 1 hour
[3] = intraperitoneal 30 mg/kg, 3 hours
[4] = intraperitoneal 30 mg/kg, 5 hours
[5] = intraperitoneal 30 mg/kg, 24 hours
[6] = intraperitoneal 0.3 mg/kg, 1 hour
[7] = intraperitoneal 0.3 mg/kg, 3 hours
[8] = intraperitoneal 0.3 mg/kg, 5 hours
[9] = intraperitoneal 0.3 mg/kg, 24 hours
[10] = intraperitoneal 1 mg/kg, 1 hour
[11] = intraperitoneal 1 mg/kg, 3 hours
[12] = intraperitoneal 1 mg/kg, 5 hours
[13] = intraperitoneal 1 mg/kg, 24 hours
[14] = intraperitoneal 3 mg/kg, 1 hour
[15] = intraperitoneal 3 mg/kg, 3 hours
[16] = intraperitoneal 3 mg/kg, 5 hours
[17] = intraperitoneal 3 mg/kg, 24 hours
[18] = intraperitoneal 10 mg/kg, 1 hour
[19] = intraperitoneal 10 mg/kg, 3 hours
[20] = intraperitoneal 10 mg/kg, 5 hours
[21] = intraperitoneal 10 mg/kg, 24 hours

COc1cc2nc(N3CCN(C(=O)C4CCCCO4)CC3)nc(N)c2cc1OC (centres unmarked) [Formula III, 2-[4(tetrahydropyran-2-carbonyl)piperazinyl]-4-amino-6,7-dimethoxyquinazoline]
Percent Change (antihypertensive effect) [1, 2]: -58%
Percent Change (antihypertensive effect) [1, 3]: -71%
Percent Change (antihypertensive effect) [1, 4]: -47%
Percent Change (antihypertensive effect) [1, 5]: -28%
Percent Change (antihypertensive effect) ([1]; oral 1 mg/kg, 1 hour, 1 mg/kg): -34%
Percent Change (antihypertensive effect) ([1]; oral 1 mg/kg, 3 hours, 1 mg/kg): -25%
Percent Change (antihypertensive effect) ([1]; oral 1 mg/kg, 5 hours, 1 mg/kg): -21%
Percent Change (antihypertensive effect) ([1]; oral 1 mg/kg, 24 hours, 1 mg/kg): -7%

COc1cc2nc(N3CCN(C(=O)C4CCCCO4)CC3)nc(N)c2cc1OC (centres unmarked) [2-[4(Tetrahydropyran-2-Carbonyl)Piperazinyl]-4-Amino-6,7-Dimethoxyquinazoline Hydrochloride]
solubility (physchem): 56.5 mg/mL

COc1cc2nc(N3CCN(C(=O)C4CCCO4)CC3)nc(N)c2cc1OC (centres unmarked) [Formula II, 2[4(tetrahydro-2-furoyl)-piperazino]-4-amino-6,7-dimethoxyquinazoline]
antihypertensive effect in words ([1]; SH rats): potent antihypertensive agents which lower the blood pressure of spontaneously hypertensive rats
heart rate in words ([1]; SH rats): without causing any significant changes in heart rate
Percent Change BP (blood pressure) [1, 6]: -22.3%
Percent Change HR (heart rate) [1, 6]: 20.0%
Percent Change BP (blood pressure) [1, 7]: -26.5%
Percent Change HR (heart rate) [1, 7]: 10.3%
Percent Change BP (blood pressure) [1, 8]: -20.5%
Percent Change HR (heart rate) [1, 8]: 14.3%
Percent Change BP (blood pressure) [1, 9]: 2.5%
Percent Change HR (heart rate) [1, 9]: 10.0%
Percent Change BP (blood pressure) [1, 10]: -26.5%
Percent Change HR (heart rate) [1, 10]: 22.8%
Percent Change BP (blood pressure) [1, 11]: -27.5%
Percent Change HR (heart rate) [1, 11]: 2.8%
Percent Change BP (blood pressure) [1, 12]: -17.0%
Percent Change HR (heart rate) [1, 12]: 11.5%
Percent Change BP (blood pressure) [1, 13]: 3.8%
Percent Change HR (heart rate) [1, 13]: -9.5%
Percent Change BP (blood pressure) [1, 14]: -45.3%
Percent Change HR (heart rate) [1, 14]: 7.8%
Percent Change BP (blood pressure) [1, 15]: -39.0%
Percent Change HR (heart rate) [1, 15]: -1.5%
Percent Change BP (blood pressure) [1, 16]: -40.0%
Percent Change HR (heart rate) [1, 16]: 3.0%
Percent Change BP (blood pressure) [1, 17]: -2.3%
Percent Change HR (heart rate) [1, 17]: -0.5%
Percent Change BP (blood pressure) [1, 18]: -49.8%
Percent Change HR (heart rate) [1, 18]: 9.0%
Percent Change BP (blood pressure) [1, 19]: -41.5%
Percent Change HR (heart rate) [1, 19]: 24.5%
Percent Change BP (blood pressure) [1, 20]: -41.8%
Percent Change HR (heart rate) [1, 20]: 34.5%
Percent Change BP (blood pressure) [1, 21]: -7.5%
Percent Change HR (heart rate) [1, 21]: 14.0%
Percent Change BP (blood pressure) [1, 2]: -59.5%
Percent Change HR (heart rate) [1, 2]: -9.0%
Percent Change BP (blood pressure) [1, 3]: -42.3%
Percent Change HR (heart rate) [1, 3]: 1.8%
Percent Change BP (blood pressure) [1, 4]: -44.5%
Percent Change HR (heart rate) [1, 4]: 5.3%
Percent Change BP (blood pressure) [1, 5]: -22.3%
Percent Change HR (heart rate) [1, 5]: 5.8%
Percent Change BP (blood pressure) ([1]; oral 0.03 mg/kg, 1 hour): -5.3%
Percent Change HR (heart rate) ([1]; oral 0.03 mg/kg, 1 hour): -4.3%
Percent Change BP (blood pressure) ([1]; oral 0.03 mg/kg, 3 hours): -1.8%
Percent Change HR (heart rate) ([1]; oral 0.03 mg/kg, 3 hours): -8.5%
Percent Change BP (blood pressure) ([1]; oral 0.03 mg/kg, 5 hours): -9.3%
Percent Change HR (heart rate) ([1]; oral 0.03 mg/kg, 5 hours): -14.5%
Percent Change BP (blood pressure) ([1]; oral 0.03 mg/kg, 24 hours): -3.3%
Percent Change HR (heart rate) ([1]; oral 0.03 mg/kg, 24 hours): -8.8%
Percent Change BP (blood pressure) ([1]; oral 0.1 mg/kg, 1 hour): 3.8%
Percent Change HR (heart rate) ([1]; oral 0.1 mg/kg, 1 hour): 3.0%
Percent Change BP (blood pressure) ([1]; oral 0.1 mg/kg, 3 hours): 1.8%
Percent Change HR (heart rate) ([1]; oral 0.1 mg/kg, 3 hours): 4.8%
Percent Change BP (blood pressure) ([1]; oral 0.1 mg/kg, 5 hours): -7.3%
Percent Change HR (heart rate) ([1]; oral 0.1 mg/kg, 5 hours): -6.8%
Percent Change BP (blood pressure) ([1]; oral 0.1 mg/kg, 24 hours): -1.5%
Percent Change HR (heart rate) ([1]; oral 0.1 mg/kg, 24 hours): -0.3%
Percent Change BP (blood pressure) ([1]; oral 0.3 mg/kg, 1 hour): -15.8%
Percent Change HR (heart rate) ([1]; oral 0.3 mg/kg, 1 hour): -1.0%
Percent Change BP (blood pressure) ([1]; oral 0.3 mg/kg, 3 hours): -22.8%
Percent Change HR (heart rate) ([1]; oral 0.3 mg/kg, 3 hours): -2.8%
Percent Change BP (blood pressure) ([1]; oral 0.3 mg/kg, 5 hours): -21.3%
Percent Change HR (heart rate) ([1]; oral 0.3 mg/kg, 5 hours): -2.8%
Percent Change BP (blood pressure) ([1]; oral 0.3 mg/kg, 24 hours): 2.0%
Percent Change HR (heart rate) ([1]; oral 0.3 mg/kg, 24 hours): 10.5%
Percent Change BP (blood pressure) ([1]; oral 1 mg/kg, 1 hour): -15.8%
Percent Change HR (heart rate) ([1]; oral 1 mg/kg, 1 hour): -9.0%
Percent Change BP (blood pressure) ([1]; oral 1 mg/kg, 3 hours): -17.3%
Percent Change HR (heart rate) ([1]; oral 1 mg/kg, 3 hours): -9.3%
Percent Change BP (blood pressure) ([1]; oral 1 mg/kg, 5 hours): -22.5%
Percent Change HR (heart rate) ([1]; oral 1 mg/kg, 5 hours): -8.5%
Percent Change BP (blood pressure) ([1]; oral 1 mg/kg, 24 hours): 3.5%
Percent Change HR (heart rate) ([1]; oral 1 mg/kg, 24 hours): -4.5%
Percent Change BP (blood pressure) ([1]; oral 3 mg/kg, 1 hour): -29.0%
Percent Change HR (heart rate) ([1]; oral 3 mg/kg, 1 hour): -9.3%
Percent Change BP (blood pressure) ([1]; oral 3 mg/kg, 3 hours): -33.3%
Percent Change HR (heart rate) ([1]; oral 3 mg/kg, 3 hours): -11.0%
Percent Change BP (blood pressure) ([1]; oral 3 mg/kg, 5 hours): -31.5%
Percent Change HR (heart rate) ([1]; oral 3 mg/kg, 5 hours): -11.0%
Percent Change BP (blood pressure) ([1]; oral 3 mg/kg, 24 hours): -12.3%
Percent Change HR (heart rate) ([1]; oral 3 mg/kg, 24 hours): -5.3%
Percent Change BP (blood pressure) ([1]; oral 10 mg/kg, 1 hour): -37.0%
Percent Change HR (heart rate) ([1]; oral 10 mg/kg, 1 hour): 12.3%
Percent Change BP (blood pressure) ([1]; oral 10 mg/kg, 3 hours): -42.0%
Percent Change HR (heart rate) ([1]; oral 10 mg/kg, 3 hours): 16.5%
Percent Change BP (blood pressure) ([1]; oral 10 mg/kg, 5 hours): -38.0%
Percent Change HR (heart rate) ([1]; oral 10 mg/kg, 5 hours): -10.3%
Percent Change BP (blood pressure) ([1]; oral 10 mg/kg, 24 hours): -12.0%
Percent Change HR (heart rate) ([1]; oral 10 mg/kg, 24 hours): 1.5%
Percent Change BP (blood pressure) ([1]; oral 30 mg/kg, 1 hour): -30.0%
Percent Change HR (heart rate) ([1]; oral 30 mg/kg, 1 hour): -9.8%
Percent Change BP (blood pressure) ([1]; oral 30 mg/kg, 3 hours): -23.8%
Percent Change HR (heart rate) ([1]; oral 30 mg/kg, 3 hours): -8.8%
Percent Change BP (blood pressure) ([1]; oral 30 mg/kg, 5 hours): -26.0%
Percent Change HR (heart rate) ([1]; oral 30 mg/kg, 5 hours): -15.5%
Percent Change BP (blood pressure) ([1]; oral 30 mg/kg, 24 hours): -4.0%
Percent Change HR (heart rate) ([1]; oral 30 mg/kg, 24 hours): -8.0%
